Data as given in patent publication US20240408052A1, “COMPOSITION CONTAINING SESAMIN AND ERGOTHIONEINE OR SALT THEREOF” (SUNTORY HOLDINGS LIMITED, priority 2021, published 2024).

Tested on: p16-INK4A (p16)
Assay: p16 expression in H2O2-treated TIG-3 cells (cellular senescence marker, real-time PCR)
Type: cell-based, human
Method: TIG-3 cells (human lung fibroblasts) were used to measure the expression level of p16-INK4A (p16) in the cells. Eagle's minimum essential medium supplemented with 10% fetal bovine serum was used in each of Examples 1 and 2, Reference Example 1, and Comparative Examples 1 to 4. A H2O2 (200 μM)-supplemented medium used for H2O2 treatment was prepared by adding H2O2 to the medium described above. The H2O2 (200 μM)-supplemented medium is free of sesamin-class compounds and ergothioneine.
In Examples 1 and 2, in order to investigate the action on cellular senescence, the cells were cultured in a medium containing sesamin-class compounds and ergothioneine and were then treated with the H2O2-supplemented medium. […]
Specifically, TIG-3 cells at 4.0×10^4 cells/well were seeded onto 6-well plates and cultured at 37° C. with CO2 (5%) for 24 hours in a medium supplemented with a sesamin-episesamin mixture (SE) and ergothioneine at the respective concentrations shown in the following Table 1. […] The resulting pellets were dissolved in 20 μL DNase RNase free water (Invitrogen) and measured by NanoDrop. […] A master mix (15 μL) (Takara, TB Green® Premix Ex Taq™ II (Tli RNaseH Plus)) was mixed with the cDNA sample (5 μL), and p16 was measured with a Real-Time PCR system (Applied Biosystems, StepOnePlus-01). An average p16 expression level (n=6) was determined. […]

Q: `C[N+](C)(C)[C@@H](Cc1c[nH]c(=S)[nH]1)C(=O)[O-]` [ergothioneine, L-ergothioneine] was tested. Which “p16 expression level compared to the H2O2-treated group (Comparative Example 1)” value (FIG. 1, ergothioneine 0.1 μM, 200 μM H2O2 two hours, then six days culture, n=6) did it give?
A: Its value is “no significant change”.

Q: And the “p16 expression compared to the H2O2-treated group (Comparative Example 1)” value (FIG. 2, ergothioneine 10 μM, 200 μM H2O2, p<0.05)?
A: The value was “significantly suppressed”.
